In US20160009693A1, “HERBICIDAL COMPOUNDS” (SYNGENTA LIMITED, priority 2013, published 2016):

Assays:
Type in all cases: in vivo
Conditions in all cases: applied at 1000 g/h, evaluated after 13 days
[1] = tested on: Alopecurus myosuroides (ALOMY); test: Herbicidal glasshouse test, post-emergence, ALOMY
[2] = tested on: Solanum nigrum (SOLNI); test: Herbicidal glasshouse test, pre-emergence, SOLNI
Procedure, shortened: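 Seeds of Solanum nigrum were sown in pots of standard soil and kept one day in a glasshouse at 24/16° C. day/night, 14 hours light and 65% humidity. For the pre-emergence treatment they were then sprayed with an aqueous solution of the active ingredient formulated in acetone/water (50:50) containing 0.5% Tween 20. Plant damage was rated after 13 days.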

[3] = tested on: Ipomoea hederacea (IPOHE); test: Herbicidal glasshouse test, pre-emergence, IPOHE
[4] = tested on: Solanum nigrum (SOLNI); test: Herbicidal glasshouse test, post-emergence, SOLNI
[5] = tested on: Amaranthus retoflexus (AMARE); test: Herbicidal glasshouse test, post-emergence, AMARE
Procedure, shortened: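 Amaranthus retoflexus (AMARE) seeds were sown in pots of standard soil and grown in a glasshouse at 24/16° C. day/night, 14 hours light and 65% humidity for 8 days. The plants were then sprayed post-emergence with an aqueous solution of the active ingredient in acetone/water (50:50) with 0.5% Tween 20. Damage was scored after 13 days.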

[6] = tested on: Echinochloa crus-galli (ECHCG); test: Herbicidal glasshouse test, pre-emergence, ECHCG
Procedure, shortened: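 Echinochloa crus-galli seeds were sown in standard soil in pots and grown for one day in a glasshouse at 24/16° C. day/night, 14 hours light and 65% humidity. Pre-emergence spraying used an aqueous solution of the active ingredient in acetone/water (50:50) with 0.5% Tween 20. Damage was scored after 13 days on a five point scale.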

[7] = tested on: Setaria faberi (SETFA); test: Herbicidal glasshouse test, post-emergence, SETFA
Procedure, shortened: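 Setaria faberi seeds were sown in standard soil in pots and grown for 8 days in a glasshouse at 24/16° C. day/night, 14 hours light and 65% humidity. The seedlings were then sprayed post-emergence with the active ingredient in acetone/water (50:50) containing 0.5% Tween 20. Afterwards they were kept under the same conditions, watered twice daily, and scored for percentage damage on a five point scale.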

[8] = tested on: Amaranthus retoflexus (AMARE); test: Herbicidal glasshouse test, pre-emergence, AMARE
Procedure, shortened: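 Amaranthus retoflexus seeds were sown in pots of standard soil and kept one day in a glasshouse at 24/16° C. (day/night), 14 hours light and 65% humidity. They were then sprayed pre-emergence with the active ingredient in acetone/water (50:50) containing 0.5% Tween 20. Plants grew under the same conditions, watered twice daily, and percentage damage was scored after 13 days.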

[9] = tested on: Echinochloa crus-galli (ECHCG); test: Herbicidal glasshouse test, post-emergence, ECHCG
Procedure, shortened: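 Echinochloa crus-galli (ECHCG) seeds were sown in standard soil in pots and grown for 8 days in a glasshouse at 24/16° C. day/night, 14 hours light and 65% humidity. The young plants were then sprayed post-emergence with the active ingredient in acetone / water (50:50) containing 0.5% Tween 20. Damage was scored after 13 days.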

[10] = tested on: Ipomoea hederacea (IPOHE); test: Herbicidal glasshouse test, post-emergence, IPOHE
[11] = tested on: Alopecurus myosuroides (ALOMY); test: Herbicidal glasshouse test, pre-emergence, ALOMY
[12] = tested on: Setaria faberi (SETFA); test: Herbicidal glasshouse test, pre-emergence, SETFA

Compound | POST Application ALOMY, percentage damage (five point scale) [1] | PRE Application SOLNI, percentage damage (five point scale) [2] | PRE Application IPOHE, percentage damage (five point scale) [3] | POST Application SOLNI, percentage damage (five point scale) [4] | POST Application AMARE, percentage damage (five point scale) [5] | PRE Application ECHCG, percentage damage (five point scale) [6] | POST Application SETFA, percentage damage (five point scale) [7] | PRE Application AMARE, percentage damage (five point scale) [8] | POST Application ECHCG, percentage damage (five point scale) [9] | POST Application IPOHE, percentage damage (five point scale) [10] | PRE Application ALOMY, percentage damage (five point scale) [11] | PRE Application SETFA, percentage damage (five point scale) [12]
COCCn1c(=O)c(C(=O)Nc2nnnn2C)nn(C)c1=O [Compound 1.088] | 5 (5=80-100%) | 5 (5=80-100%) | 5 (5=80-100%) | 5 (5=80-100%) | 5 (5=80-100%) | 5 (5=80-100%) | 5 (5=80-100%) | 5 (5=80-100%) | 5 (5=80-100%) | 5 (5=80-100%) | 5 (5=80-100%) | 5 (5=80-100%)
Cn1nnnc1NC(=O)c1nn(C)c(=O)n(Cc2ccc(F)cc2)c1=O [Compound 1.073] | 2 (2=20-39%) | 5 (5=80-100%) | 5 (5=80-100%) | 5 (5=80-100%) | 5 (5=80-100%) | 5 (5=80-100%) | 2 (2=20-39%) | 5 (5=80-100%) | 3 (3=40-59%) | 5 (5=80-100%) | 5 (5=80-100%) | 1 (1=0-19%)
C=CCn1nc(C(=O)Nc2nnnn2C)c(=O)n(-c2cccc(F)c2)c1=O [Compound 1.007] | 5 (5=80-100%) | 5 (5=80-100%) | 5 (5=80-100%) | 5 (5=80-100%) | 5 (5=80-100%) | 5 (5=80-100%) | 5 (5=80-100%) | 5 (5=80-100%) | 5 (5=80-100%) | 5 (5=80-100%) | 2 (2=20-39%) | 1 (1=0-19%)
Cc1cccc(-n2c(=O)c(C(=O)Nc3nnnn3C)nn(C)c2=O)c1 [Compound 1.053] | 5 (5=80-100%) | 5 (5=80-100%) | 5 (5=80-100%) | 5 (5=80-100%) | 5 (5=80-100%) | 5 (5=80-100%) | 3 (3=40-59%) | 5 (5=80-100%) | 4 (4=60-79%) | 5 (5=80-100%) | 5 (5=80-100%) | 3 (3=40-59%)
Cn1nnnc1NC(=O)c1nn(C)c(=O)n(-c2ccc(Cl)c(Cl)c2)c1=O [Compound 1.041] | 5 (5=80-100%) | 5 (5=80-100%) | 5 (5=80-100%) | 5 (5=80-100%) | 5 (5=80-100%) | 5 (5=80-100%) | 5 (5=80-100%) | 5 (5=80-100%) | 5 (5=80-100%) | 5 (5=80-100%) | 5 (5=80-100%) | 4 (4=60-79%)
Cc1ccc(-n2c(=O)c(C(=O)Nc3nnnn3C)nn(C)c2=O)cc1C [Compound 1.026] | 5 (5=80-100%) | 5 (5=80-100%) | 5 (5=80-100%) | 5 (5=80-100%) | 5 (5=80-100%) | 5 (5=80-100%) | 5 (5=80-100%) | 5 (5=80-100%) | 5 (5=80-100%) | 5 (5=80-100%) | 5 (5=80-100%) | 5 (5=80-100%)
Cn1nnnc1NC(=O)c1nn(C)c(=O)n(Cc2ccc(F)cc2Cl)c1=O [Compound 1.069] | 5 (5=80-100%) | 5 (5=80-100%) | 5 (5=80-100%) | 5 (5=80-100%) | 5 (5=80-100%) | 5 (5=80-100%) | 2 (2=20-39%) | 5 (5=80-100%) | 5 (5=80-100%) | 5 (5=80-100%) | 5 (5=80-100%) | 2 (2=20-39%)
Cc1cccc(-n2c(=O)c(C(=O)Nc3nnnn3C)nn(C)c2=O)c1 [Compound 1.025] | 5 (5=80-100%) | 5 (5=80-100%) | 5 (5=80-100%) | 5 (5=80-100%) | 5 (5=80-100%) | 5 (5=80-100%) | 5 (5=80-100%) | 5 (5=80-100%) | 5 (5=80-100%) | 5 (5=80-100%) | 5 (5=80-100%) | 5 (5=80-100%)
